The NIST ThermoML archive (doi:10.1016/j.tca.2015.08.013)
± gives the expanded uncertainty stated by the source.

What was measured:
[1] = relative permittivity at various frequencies (dimensionless); conditions: 99 kPa, Liquid, Frequency=2 MHz, Parallel plate capacitor
[2] = refractive index (Na D-line) (dimensionless); conditions: 101.33 kPa, Liquid, Standard Abbe refractometry

## c1ccoc1 [furan]
[1]; 278.15 K
  relative permittivity: 3.124 ± 0.016
[1]; 280.65 K
  relative permittivity: 3.094 ± 0.015
[1]; 283.15 K
  relative permittivity: 3.068 ± 0.015
[1]; 285.65 K
  relative permittivity: 3.036 ± 0.015
[1]; 288.15 K
  relative permittivity: 3.009 ± 0.015
[1]; 290.65 K
  relative permittivity: 2.988 ± 0.015
[1]; 293.15 K
  relative permittivity: 2.958 ± 0.015
[1]; 295.65 K
  relative permittivity: 2.934 ± 0.015
[1]; 298.15 K
  relative permittivity: 2.913 ± 0.015
[1]; 300.65 K
  relative permittivity: 2.892 ± 0.014
[1]; 303.15 K
  relative permittivity: 2.865 ± 0.014
[2]; 283.15 K
  refractive index: 1.42784 ± 0.00037
[2]; 285.65 K
  refractive index: 1.42625 ± 0.00037
[2]; 288.15 K
  refractive index: 1.42463 ± 0.00037
[2]; 290.65 K
  refractive index: 1.42303 ± 0.00037
[2]; 293.15 K
  refractive index: 1.42141 ± 0.00037
[2]; 295.65 K
  refractive index: 1.41979 ± 0.00037
[2]; 298.15 K
  refractive index: 1.41814 ± 0.00037
[2]; 300.65 K
  refractive index: 1.4165 ± 0.00037
[2]; 303.15 K
  refractive index: 1.41485 ± 0.00037

## Cc1ccco1 [2-methylfuran]
[1]; 278.15 K
  relative permittivity: 2.976 ± 0.015
[1]; 280.65 K
  relative permittivity: 2.967 ± 0.015
[1]; 283.15 K
  relative permittivity: 2.944 ± 0.015
[1]; 285.65 K
  relative permittivity: 2.933 ± 0.015
[1]; 288.15 K
  relative permittivity: 2.911 ± 0.015
[1]; 290.65 K
  relative permittivity: 2.893 ± 0.014
[1]; 293.15 K
  relative permittivity: 2.874 ± 0.014
[1]; 295.65 K
  relative permittivity: 2.854 ± 0.014
[1]; 298.15 K
  relative permittivity: 2.84 ± 0.014
[1]; 300.65 K
  relative permittivity: 2.814 ± 0.014
[1]; 303.15 K
  relative permittivity: 2.8 ± 0.014
[1]; 305.65 K
  relative permittivity: 2.775 ± 0.014
[1]; 308.15 K
  relative permittivity: 2.76 ± 0.014
[1]; 310.65 K
  relative permittivity: 2.735 ± 0.014
[1]; 313.15 K
  relative permittivity: 2.72 ± 0.014
[1]; 315.65 K
  relative permittivity: 2.696 ± 0.013
[1]; 318.15 K
  relative permittivity: 2.678 ± 0.013
[1]; 320.65 K
  relative permittivity: 2.656 ± 0.013
[1]; 323.15 K
  relative permittivity: 2.636 ± 0.013
[1]; 325.65 K
  relative permittivity: 2.617 ± 0.013
[1]; 328.15 K
  relative permittivity: 2.596 ± 0.013
[1]; 330.65 K
  relative permittivity: 2.577 ± 0.013
[1]; 333.15 K
  relative permittivity: 2.556 ± 0.013
[1]; 335.65 K
  relative permittivity: 2.538 ± 0.013
[1]; 338.15 K
  relative permittivity: 2.518 ± 0.013
[2]; 283.15 K
  refractive index: 1.43942 ± 0.00037
[2]; 285.65 K
  refractive index: 1.43794 ± 0.00037
[2]; 288.15 K
  refractive index: 1.43644 ± 0.00037
[2]; 290.65 K
  refractive index: 1.43495 ± 0.00037
[2]; 293.15 K
  refractive index: 1.43344 ± 0.00037
[2]; 295.65 K
  refractive index: 1.43194 ± 0.00037
[2]; 298.15 K
  refractive index: 1.43044 ± 0.00037
[2]; 300.65 K
  refractive index: 1.42893 ± 0.00037
[2]; 303.15 K
  refractive index: 1.42742 ± 0.00037
[2]; 305.65 K
  refractive index: 1.4259 ± 0.00037
[2]; 308.15 K
  refractive index: 1.4244 ± 0.00037
[2]; 310.65 K
  refractive index: 1.42289 ± 0.00037
[2]; 313.15 K
  refractive index: 1.42138 ± 0.00037
[2]; 315.65 K
  refractive index: 1.41984 ± 0.00037
[2]; 318.15 K
  refractive index: 1.41831 ± 0.00037
[2]; 320.65 K
  refractive index: 1.41675 ± 0.00037
[2]; 323.15 K
  refractive index: 1.41521 ± 0.00037
[2]; 325.65 K
  refractive index: 1.41366 ± 0.00037
[2]; 328.15 K
  refractive index: 1.41212 ± 0.00037
[2]; 330.65 K
  refractive index: 1.41059 ± 0.00037
[2]; 333.15 K
  refractive index: 1.40907 ± 0.00037
[2]; 335.65 K
  refractive index: 1.40747 ± 0.00037
[2]; 338.15 K
  refractive index: 1.40589 ± 0.00037

## Cc1ccc(C)o1 [2,5-dimethylfuran]
[1]; 278.15 K
  relative permittivity: 2.562 ± 0.013
[1]; 280.65 K
  relative permittivity: 2.553 ± 0.013
[1]; 283.15 K
  relative permittivity: 2.538 ± 0.013
[1]; 285.65 K
  relative permittivity: 2.526 ± 0.013
[1]; 288.15 K
  relative permittivity: 2.516 ± 0.013
[1]; 290.65 K
  relative permittivity: 2.499 ± 0.013
[1]; 293.15 K
  relative permittivity: 2.492 ± 0.012
[1]; 295.65 K
  relative permittivity: 2.472 ± 0.012
[1]; 298.15 K
  relative permittivity: 2.462 ± 0.012
[1]; 300.65 K
  relative permittivity: 2.445 ± 0.012
[1]; 303.15 K
  relative permittivity: 2.434 ± 0.012
[1]; 305.65 K
  relative permittivity: 2.418 ± 0.012
[1]; 308.15 K
  relative permittivity: 2.404 ± 0.012
[1]; 310.65 K
  relative permittivity: 2.391 ± 0.012
[1]; 313.15 K
  relative permittivity: 2.376 ± 0.012
[1]; 315.65 K
  relative permittivity: 2.364 ± 0.012
[1]; 318.15 K
  relative permittivity: 2.349 ± 0.012
[1]; 320.65 K
  relative permittivity: 2.337 ± 0.012
[1]; 323.15 K
  relative permittivity: 2.321 ± 0.012
[1]; 325.65 K
  relative permittivity: 2.31 ± 0.012
[1]; 328.15 K
  relative permittivity: 2.292 ± 0.011
[1]; 330.65 K
  relative permittivity: 2.283 ± 0.011
[1]; 333.15 K
  relative permittivity: 2.272 ± 0.011
[1]; 335.65 K
  relative permittivity: 2.256 ± 0.011
[1]; 338.15 K
  relative permittivity: 2.245 ± 0.011
[2]; 283.15 K
  refractive index: 1.4477 ± 0.00037
[2]; 285.65 K
  refractive index: 1.44645 ± 0.00037
[2]; 288.15 K
  refractive index: 1.44494 ± 0.00037
[2]; 290.65 K
  refractive index: 1.44362 ± 0.00037
[2]; 293.15 K
  refractive index: 1.44218 ± 0.00037
[2]; 295.65 K
  refractive index: 1.44079 ± 0.00037
[2]; 298.15 K
  refractive index: 1.43942 ± 0.00037
[2]; 300.65 K
  refractive index: 1.43796 ± 0.00037
[2]; 303.15 K
  refractive index: 1.43665 ± 0.00037
[2]; 305.65 K
  refractive index: 1.43513 ± 0.00037
[2]; 308.15 K
  refractive index: 1.43383 ± 0.00037
[2]; 310.65 K
  refractive index: 1.4323 ± 0.00037
[2]; 313.15 K
  refractive index: 1.43098 ± 0.00037
[2]; 315.65 K
  refractive index: 1.42947 ± 0.00037
[2]; 318.15 K
  refractive index: 1.42815 ± 0.00037
[2]; 320.65 K
  refractive index: 1.42664 ± 0.00037
[2]; 323.15 K
  refractive index: 1.42525 ± 0.00037
[2]; 325.65 K
  refractive index: 1.42381 ± 0.00037
[2]; 328.15 K
  refractive index: 1.42239 ± 0.00037
[2]; 330.65 K
  refractive index: 1.42098 ± 0.00037
[2]; 333.15 K
  refractive index: 1.41948 ± 0.00037
[2]; 335.65 K
  refractive index: 1.41815 ± 0.00037
[2]; 338.15 K
  refractive index: 1.41657 ± 0.00037
